Reference: ChEMBL document CHEMBL1201862, “PubChem BioAssay data set” (2004)
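Growth conditions: 96-well plates. Treatment: test compound, 48 hours, 5 concentrations. Analysis: linear interpolation between bracketing concentrations; unreached endpoints set to highest concentration. Here, GI50 denotes the concentration required for 50% inhibition of growth.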 Calls of active or inactive are those of the source. Cut-off read from the data, not from the text of the source: active = GI50 up to about 1.1 µM and inactive = higher.

What was measured:
Assay in all cases: NCI tumour cell line growth inhibition, 48 h
[1] = test system: MDA-MB-231
[2] = test system: SNB-75
[3] = test system: SK-MEL-5
[4] = test system: Hs-578T
[5] = test system: MCF7
[6] = test system: IGROV-1
[7] = test system: CCRF-CEM
[8] = test system: OVCAR-8
[9] = test system: SK-OV-3
[10] = test system: NCI-H23
[11] = test system: EKVX
[12] = test system: SK-MEL-2
[13] = test system: SNB-19
[14] = test system: HT-29
[15] = test system: M14
[16] = test system: MDA-MB-435
[17] = test system: BT-549
[18] = test system: Malme-3M
[19] = test system: T47D

SMILES	GI50 [1]	GI50 [2]	GI50 [3]	GI50 [4]	GI50 [5]	GI50 [6]	GI50 [7]	GI50 [8]	GI50 [9]	GI50 [10]	GI50 [11]	GI50 [12]	GI50 [13]	GI50 [14]	GI50 [15]	GI50 [16]	GI50 [17]	GI50 [18]	GI50 [19]
Nc1c(C(=O)c2ccccc2)[nH]c(NCc2ccccc2)c1C(=S)Nc1ccccc1	> 100 µM (inactive)	> 100 µM (inactive)	> 100 µM (inactive)	> 100 µM (inactive)	> 100 µM (inactive)	> 100 µM (inactive)	> 100 µM (inactive)	> 100 µM (inactive)	> 100 µM (inactive)	> 100 µM (inactive)	> 100 µM (inactive)	> 100 µM (inactive)	> 100 µM (inactive)	> 100 µM (inactive)	> 100 µM (inactive)	> 100 µM (inactive)	> 100 µM (inactive)	> 100 µM (inactive)	> 100 µM (inactive)
CCCCCCCCCCCCCCCCCCNc1nc(=O)n(C2CC(O)C(COP(=O)(O)OCC3OC(n4ccc(N)nc4=O)C(O)C3O)O2)cc1F (stereo not given)	27.7 µM (inactive)	> 100 µM (inactive)	> 100 µM (inactive)	> 100 µM (inactive)	6.7 µM (inactive)	30.3 µM (inactive)	> 100 µM (inactive)	4.13 µM (inactive)	53.6 µM (inactive)	16 µM (inactive)	> 100 µM (inactive)	> 100 µM (inactive)	10.6 µM (inactive)	13.1 µM (inactive)	9.35 µM (inactive)	> 100 µM (inactive)	31.1 µM (inactive)	24.5 µM (inactive)	28.7 µM (inactive)
Cc1ccc2c(c1)SC1=Nc3sc4cc(C)ccc4[n+]3CN12	10.8 µM (inactive)	11.4 µM (inactive)	1.07 µM (active)	6.87 µM (inactive)	4.44 µM (inactive)	16.1 µM (inactive)	–	3.04 µM (inactive)	31.8 µM (inactive)	1.98 µM (inactive)	0.687 µM (active)	3.51 µM (inactive)	3.24 µM (inactive)	6.82 µM (inactive)	3.59 µM (inactive)	4.22 µM (inactive)	2.43 µM (inactive)	0.568 µM (active)	1.34 µM (inactive)
CC(C)(Cl)C(Cl)CC/C(CBr)=C(\Cl)CBr (stereo not given)	2 µM (inactive)	2.23 µM (inactive)	1.79 µM (inactive)	1.85 µM (inactive)	2.49 µM (inactive)	1.66 µM (inactive)	0.15 µM (active)	1.95 µM (inactive)	4.31 µM (inactive)	1.85 µM (inactive)	16.5 µM (inactive)	1.67 µM (inactive)	11.1 µM (inactive)	2.84 µM (inactive)	1.6 µM (inactive)	2.37 µM (inactive)	1.75 µM (inactive)	2.11 µM (inactive)	1.96 µM (inactive)
COc1cc(O)c2c(=O)c(OC)c(-c3ccc(OC)c(O)c3)oc2c1 [AYANIN]	14.8 µM (inactive)	6.14 µM (inactive)	20.4 µM (inactive)	7.85 µM (inactive)	15.5 µM (inactive)	25.4 µM (inactive)	23.6 µM (inactive)	66.5 µM (inactive)	35.7 µM (inactive)	69.5 µM (inactive)	62.5 µM (inactive)	> 100 µM (inactive)	> 100 µM (inactive)	79.1 µM (inactive)	52.2 µM (inactive)	34.7 µM (inactive)	20.4 µM (inactive)	24 µM (inactive)	3.83 µM (inactive)
Cc1cc(-c2nc3ccccc3s2)ccc1NC(=O)[C@H](C)N	14.3 µM (inactive)	12.5 µM (inactive)	13 µM (inactive)	24.3 µM (inactive)	0.372 µM (active)	4.38 µM (inactive)	7.89 µM (inactive)	17.9 µM (inactive)	14.9 µM (inactive)	16.5 µM (inactive)	–	17.5 µM (inactive)	15.1 µM (inactive)	14.4 µM (inactive)	3.14 µM (inactive)	7.18 µM (inactive)	15.7 µM (inactive)	24 µM (inactive)	0.128 µM (active)
O=Cc1cc([N+](=O)[O-])no1	26.5 µM (inactive)	> 100 µM (inactive)	20 µM (inactive)	46.6 µM (inactive)	22 µM (inactive)	59 µM (inactive)	16.6 µM (inactive)	41 µM (inactive)	> 100 µM (inactive)	33.8 µM (inactive)	–	24.4 µM (inactive)	92.9 µM (inactive)	23 µM (inactive)	17.1 µM (inactive)	15.2 µM (inactive)	> 100 µM (inactive)	> 10 µM (inactive)	50.5 µM (inactive)
